Measurements taken from patent US20130197085A1, “AGENT AND METHOD FOR STABILIZING MEMBRANE PROTEIN” (priority 2007, published 2013).

How the values were obtained:
[1] = system: extrinsic P-gp; experiment: Cell surface biotinylation method, expression on the surface of MDCKII cells; assay type: cell-based; conditions: 1 mM, 24 hours
[2] = system: D482G BSEP mRNA; experiment: Measurement of BSEP mRNA level by real-time quantitative PCR in MDCKII cells; assay type: cell-based, human; conditions: 1 mM 4PBA, 24 hours; not statistically significant (P=0.20)
Description: (§1) MDCKII cells were dispersed on a 6-well plate, resulting in a density of 2.5×10^5 cells/well. After completion of the culture for 24 hours, the confluent cells were infected with recombinant adenoviruses having the cDNAs of wild-type, E297G and D482G BSEPs, and GFP, at 50 MOI. After completion of the infection, the cells were cultured for 24 hours. Thereafter, the cultured cells were treated with 1 mM 4PBA. After completion of the treatment for 24 hours, RNA was isolated using ISOGEN (Wako Pure Chemical Industries, Ltd.) in accordance with an instruction manual included therewith. A DNaseI treatment was carried out at 37° C. for 1 hour, and a reverse transcription reaction was then carried out (see Hayashi et al., Hepatology, 41: 916-924, 2005). The BSEP mRNA level was measured by real-time quantitative PCR according to an ordinary method. The quantitative PCR was carried out using the following primers.
(§2) It is to be noted that the expression of a BSEP gene in each reaction was standardized by the expression of GAPDH.

[3] = system: E297G BSEP mRNA; experiment: as above; assay type: cell-based, human; conditions: 1 mM 4PBA, 24 hours; not statistically significant (P=0.20)
Description: as §1, §2

[4] = system: wild-type BSEP mRNA; experiment: as above; assay type: cell-based, human; conditions: 1 mM 4PBA, 24 hours; not statistically significant (P=0.10)
Description: as §1, §2

For `O=C(O)CCCc1ccccc1` [4PBA, 4-phenylbutyric acid], the “expression of extrinsic P-gp” value [1] was “not influenced”, the “expression level of BSEP mRNA standardized by GAPDH mRNA” value (“expression level” below) [2] was “slightly increased” and the “expression level” value [3] was “slightly increased”. The “expression level” value [4] was “slightly increased”.
